According to US9334263B2, “Compositions useful for treating disorders related to kit” (BLUEPRINT MEDICINES CORPORATION, priority 2013, dated 2016):
“Also recorded” adds a separate entry of the source.

Key:
D816V Kit = target: T1, D816V Kit (Homo sapiens, UniProt P10721, D816V); test: Kit D816V assay at Km (Caliper electrophoretic mobility shift); format: biochemical; conditions: 15 uM ATP, 25 C, 90 minutes
T1 construct: purchased Carna Bioscience 08-156
Outline: (§1)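 Read-out is the ratio of phosphorylated to unphosphorylated fluorescent peptide, resolved by mobility shift on a Caliper EZ Reader 2.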

P815 tumor cells = test: P815 mastocytoma xenograft model; format: in vivo, mouse; conditions: female BALB/c nude mice, P815 s.c., p.o. BID x 10
Experimental: Compound 165 and Dasatinib were evaluated in a P815 mastocytoma xenograft model. P815 tumor cells (ATCC, Manassas, Va., cat # ATCC® TIB-64) were maintained in vitro as a suspension and monolayer culture in RPMI1640 medium supplemented with 10% fetal calf serum at 37° C. in an atmosphere of 5% CO2 in air. The tumor cells were sub-cultured twice weekly by trypsin-EDTA treatment. The cells growing in an exponential growth phase were harvested and counted for tumor inoculation.
Tumor sizes were measured every other day in two dimensions using a caliper, and the volume was expressed in mm^3 using the formula: V=0.5 a×b^2 where a and b were the long and short diameters of the tumor, respectively. […] T-C was calculated with T as the median time (in days) required for the treatment group tumors to reach a predetermined size (e.g., 1000 mm^3), and C as the median time (in days) for the control group tumors to reach the same size. […]
TGI was calculated for each group using the formula: TGI (%)=[1−(Ti−T0)/(Vi−V0)]×100; Ti is the average tumor volume of a treatment group on a given day, T0 is the average tumor volume of the treatment group on the day of treatment start, Vi is the average tumor volume of the vehicle control group on the same day with Ti, and V0 is the average tumor volume of the vehicle group on the day of treatment start. Tumor weight was measured at the endpoint. […]

wild type Kit = target: T2, wild type Kit (Homo sapiens, UniProt P10721); test: Kit wild type assay at Km (Caliper electrophoretic mobility shift); format: biochemical; conditions: 400 uM ATP, 25 C, 90 minutes; read-out: WT KIT
T2 construct: purchased Carna Bioscience 08-156
T2 sequence (P10721 26-976): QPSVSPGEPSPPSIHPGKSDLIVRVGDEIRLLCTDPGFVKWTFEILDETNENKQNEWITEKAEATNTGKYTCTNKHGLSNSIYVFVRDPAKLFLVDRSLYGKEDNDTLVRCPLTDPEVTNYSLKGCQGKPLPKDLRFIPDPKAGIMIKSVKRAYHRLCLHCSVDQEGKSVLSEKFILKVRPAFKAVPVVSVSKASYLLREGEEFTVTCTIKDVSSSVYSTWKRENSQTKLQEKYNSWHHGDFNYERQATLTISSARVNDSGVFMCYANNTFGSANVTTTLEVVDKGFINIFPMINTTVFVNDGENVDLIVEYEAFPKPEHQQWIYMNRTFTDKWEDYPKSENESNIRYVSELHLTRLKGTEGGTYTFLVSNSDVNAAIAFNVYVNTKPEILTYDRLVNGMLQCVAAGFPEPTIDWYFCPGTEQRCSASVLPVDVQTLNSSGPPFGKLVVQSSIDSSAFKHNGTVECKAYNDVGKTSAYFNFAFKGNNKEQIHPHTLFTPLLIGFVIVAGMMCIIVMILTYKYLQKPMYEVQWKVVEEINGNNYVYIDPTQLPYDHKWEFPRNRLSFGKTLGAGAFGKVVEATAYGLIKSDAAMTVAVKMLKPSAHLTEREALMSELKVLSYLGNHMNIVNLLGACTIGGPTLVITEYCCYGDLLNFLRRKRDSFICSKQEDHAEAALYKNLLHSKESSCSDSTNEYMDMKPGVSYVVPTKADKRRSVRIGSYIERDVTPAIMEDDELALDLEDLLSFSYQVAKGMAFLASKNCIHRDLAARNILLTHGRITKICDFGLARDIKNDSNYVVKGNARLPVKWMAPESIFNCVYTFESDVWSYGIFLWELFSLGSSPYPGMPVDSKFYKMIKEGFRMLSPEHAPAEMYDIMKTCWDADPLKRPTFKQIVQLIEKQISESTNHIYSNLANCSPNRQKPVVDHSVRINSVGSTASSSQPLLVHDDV
Outline: as §1

[1] = target: T3, Kit D816V (HMC1.2 cells, Kit V560G and D816V) (Homo sapiens, UniProt P10721, D816V/V560G); test: HMC1.2 autophosphorylation assay (AlphaLISA, phospho-Y719 c-Kit); format: cell-based; conditions: Kit autophosphorylation at tyrosine 719, 90 minutes, read-out: Cellular Activity
T3 construct: endogenous in cells; host or cells: HMC1.2 cells
T3 sequence (P10721 26-976 V560G/D816V): as the sequence (P10721 26-976) above, with V535G, D791V counted along it
Outline: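 AlphaScreen signal comes from lysed HMC1.2 cells incubated with phospho-Y719 and total c-Kit antibodies (15 nM final), acceptor beads and then streptavidin donor beads, 2 h each at room temperature. Beforehand, cells deprived of serum overnight received compound for 90 min as a 10-point series, 25 uM–95.4 pM, 0.25% DMSO.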

PDGFRA D842V = target: T4, PDGFRA D842V (Homo sapiens, UniProt P16234, D842V); test: PDGFRA D842V assay at Km (Caliper electrophoretic mobility shift); format: biochemical; conditions: 15 uM ATP, 25 C, 90 minutes; read-out: PDFGRA D842V
T4 construct: purchased ProQinase 0761-0000-1
T4 sequence (P16234 24-1089 D842V): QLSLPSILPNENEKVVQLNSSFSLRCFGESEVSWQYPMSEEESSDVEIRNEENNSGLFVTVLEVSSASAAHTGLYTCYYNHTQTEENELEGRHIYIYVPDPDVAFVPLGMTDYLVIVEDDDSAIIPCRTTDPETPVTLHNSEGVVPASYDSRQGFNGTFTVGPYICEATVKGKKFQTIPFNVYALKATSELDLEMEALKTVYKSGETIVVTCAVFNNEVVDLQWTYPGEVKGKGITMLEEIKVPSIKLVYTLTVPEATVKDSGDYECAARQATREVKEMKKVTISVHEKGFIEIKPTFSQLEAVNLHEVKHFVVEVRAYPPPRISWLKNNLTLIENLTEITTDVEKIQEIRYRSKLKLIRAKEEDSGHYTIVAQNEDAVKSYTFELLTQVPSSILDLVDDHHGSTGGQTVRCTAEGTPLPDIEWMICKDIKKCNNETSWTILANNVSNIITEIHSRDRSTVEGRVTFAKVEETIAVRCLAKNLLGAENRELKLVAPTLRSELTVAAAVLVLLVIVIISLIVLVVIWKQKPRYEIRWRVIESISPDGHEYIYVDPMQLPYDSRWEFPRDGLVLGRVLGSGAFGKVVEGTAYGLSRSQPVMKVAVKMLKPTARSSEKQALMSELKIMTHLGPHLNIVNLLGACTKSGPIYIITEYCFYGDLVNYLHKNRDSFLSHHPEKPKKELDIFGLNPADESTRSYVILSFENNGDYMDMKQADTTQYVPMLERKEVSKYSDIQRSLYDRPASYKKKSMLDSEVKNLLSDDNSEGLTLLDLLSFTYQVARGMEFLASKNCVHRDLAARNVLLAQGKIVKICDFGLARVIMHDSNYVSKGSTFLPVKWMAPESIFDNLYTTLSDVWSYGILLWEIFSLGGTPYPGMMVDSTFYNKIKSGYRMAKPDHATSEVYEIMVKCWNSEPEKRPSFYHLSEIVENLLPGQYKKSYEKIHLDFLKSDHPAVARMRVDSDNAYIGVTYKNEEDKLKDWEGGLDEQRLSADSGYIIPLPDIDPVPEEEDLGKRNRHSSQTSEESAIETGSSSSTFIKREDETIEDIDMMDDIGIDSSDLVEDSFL
Experimental: In order to assess the activity of chemical compounds against the relevant kinase of interest, the Caliper LifeSciences electrophoretic mobility shift technology platform is used. Fluorescently labeled substrate peptide is incubated in the presence of kinase and ATP so that a […] proportion of the peptide is phosphorylated. At the end of the reaction, the mix of phosphorylated (product) and non-phosphorylated (substrate) peptides are passed through the microfluidic system of the Caliper EZ Reader 2, under an applied potential difference. The presence of the phosphate group on the product peptide provides a difference in mass and charge between those of the substrate peptide, resulting in a separation of the substrate and product pools in the sample. As the pools pass a LEDS within the instrument, these pools are detected and resolved as separate peaks. The ratio between these peaks therefore reflects the activity of the chemical matter at that concentration in that well, under those conditions.
The reaction was stopped by the addition of 70 ul of Stop buffer (100 mM HEPES pH 7.5, 0.015% Brij 35, 35 mM EDTA and 0.2% of Coating Reagent 3 (Caliper Lifesciences)). The plate was then read on a Caliper EZReader 2 (protocol settings: −1.9 psi, upstream voltage −500, downstream voltage −3000, post sample sip 38 s).

T1 sequence (P10721 26-976 D816V): as the sequence (P10721 26-976) above, with D791V counted along it

| SMILES | IC50 (D816V Kit) [nM] | tumor growth inhibition / antitumor activity (P815 tumor cells) | IC50 (wild type Kit) [nM] | IC50 [1] [nM] | IC50 (PDGFRA D842V) [nM] |
| --- | --- | --- | --- | --- | --- |
| O[C@@H]1CCCN(c2ccc(Nc3ncnc(N4CCN(c5ncc(Cc6ccccc6)cn5)CC4)n3)cc2)C1 [Compound 165] | 1.01 to 10 | effective in inhibiting tumor growth; also recorded: observable antitumor activity | 100 to 1000 | 10 to 100 | 1.01 to 10 |
| c1ccc(Cc2cnc(N3CCN(c4ncnc(Nc5cnn(C[C@@H]6CNCCO6)c5)n4)CC3)nc2)cc1 [Compound 124] | < 1 | – | < 10 | 10 to 100 | < 1 |
| CN(C)C1CCN(Cc2cccc(Nc3ncnc(N4CCN(c5ncc(Cc6ccccc6)cn5)CC4)n3)c2)C1 (stereo not drawn) [Compound 259] | < 1 | – | < 10 | 10 to 100 | < 1 |
| c1ccc(Cc2cnc(N3CCN(c4ncnc(Nc5cnn([C@H]6CCNC6)c5)n4)CC3)nc2)cc1 [Compound 52] | < 1 | – | < 10 | 10 to 100 | < 1 |
| c1ccc(Cc2cnc(N3CCN(c4ncnc(Nc5cnn([C@@H]6CCNC6)c5)n4)CC3)nc2)cc1 (single isomer, unassigned) [Compound 53] | < 1 | – | < 10 | 10 to 100 | < 1 |
| c1ccc(Cc2cnc(N3CCN(c4ncnc(Nc5ccc(O[C@@H]6CCCNC6)cc5)n4)CC3)nc2)cc1 [Compound 161] | < 1 | – | < 10 | < 10 | 1.01 to 10 |
| Oc1nc(N2CCN(c3ncnc(Nc4cnn(CC5CCNCC5)c4)n3)CC2)ncc1Cc1ccccc1 [Compound 179] | < 1 | – | < 10 | 1000 to 10000 | < 1 |
| CNCCn1cc(Nc2ncnc(N3CCN(c4ncc(Cc5ccccc5)cn4)CC3)n2)cn1 [Compound 30] | < 1 | – | 11 to 100 | 10 to 100 | < 1 |
